Source: US20260085053A1, “BENZOFURAN DERIVATIVES AS SIK INHIBITORS AND THE USE THEREOF” (BEONE MEDICINES I GMBH, priority 2023, published 2026)

What was measured:
[1] = target: T1, SIK2 kinase (full length, Thermo Fisher) (Homo sapiens, UniProt Q9H0K1); experiment: Biochemical activities determination for SIK2 protein (TR-FRET); details: 80 uM ATP, 0.5 μM substrate
T1 construct: SIK2 kinase (full length, Thermo Fisher); purchased Thermo Fisher
Description: 2. Biochemical Activities Determination for SIK2 Protein
(§1) Compounds were tested for inhibition of SIK2 kinase (full length, Thermo Fisher) in assays based on the time-resolved fluorescence-resonance energy transfer (TR-FRET) methodology. The assays were carried out in 384-well low volume white plates in a reaction mixture containing SIK2 kinase, 80 uM ATP, 0.5 μM SIK1 substrate and 0-10 μM compound in buffer containing 25 mM Tris, 0.01% Trition X-100, 0.5 mM EGTA, 5 mM MgCl2, 2.5 mM DTT, pH=7.5. The kinase was incubated with compounds for 60 minutes at room temperature and the reaction was initiated by the addition of ATP and STK1 substrate. After reaction at room temperature for 180 minutes, an equal volume of stop/detection solution was added according to the manufacture's instruction (CisBio Bioassays). The stop/detection solution contained STK Antibody-Cryptate and XL665-conjugated streptavidin (Cat: 62ST1PEC, Cisbio) in Detection Buffer (Cat: 62SDBRDF, Cisbio). Plates were sealed and incubated at room temperature for overnight, and the TR-FRET signals (ratio of fluorescence emission at 665 nm over emission at 620 nm with excitation at 337 nm wavelength) were recorded on a PHERAstar FS plate reader (BMG Labtech). Phosphorylation of STK1 substrate led to the binding of STK Antibody-Cryptate to the biotinylated STK1 substrate, which places fluorescent donor (Eu^3+ crypate) in close proximity to the accepter (Streptavidin-XL665), thus resulting in a high degree of fluorescence resonance energy transfer from the donor fluorophore (at 620 nm) to the acceptor fluorophore (at 665 nm). […] The IC50 for each compound was derived from fitting the data to the four-parameter logistic equation by Dotmatics.

[2] = target: T2, SIK1 kinase (aa1-303, Thermo Fisher) (Homo sapiens, UniProt P57059); experiment: Biochemical activities determination for SIK1 protein (TR-FRET); details: 110 uM ATP, 0.5 μM STK1 substrate
T2 construct: SIK1 kinase (aa1-303, Thermo Fisher); purchased Thermo Fisher
T2 sequence (P57059 1-303): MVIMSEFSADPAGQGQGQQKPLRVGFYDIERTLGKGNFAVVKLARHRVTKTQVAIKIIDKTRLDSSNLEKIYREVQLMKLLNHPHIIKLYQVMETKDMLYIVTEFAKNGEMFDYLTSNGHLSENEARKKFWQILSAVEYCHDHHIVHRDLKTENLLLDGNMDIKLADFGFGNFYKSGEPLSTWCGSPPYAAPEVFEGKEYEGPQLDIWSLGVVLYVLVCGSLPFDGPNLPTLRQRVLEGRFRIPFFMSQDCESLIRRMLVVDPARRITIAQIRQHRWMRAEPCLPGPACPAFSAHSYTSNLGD
Description: 1. Biochemical Activities Determination for SIK1 Protein
as §1, with “of SIK1” for “of SIK2”, “kinase (aa1-303,” for “kinase (full length,”, “containing SIK1” for “containing SIK2”, “kinase, 110” for “kinase, 80”, “μM STK1” for “μM SIK1”, “biotinylated […]” for “biotinylated STK1”

[3] = target: T3, SIK3 kinase (aa59-365, Thermo Fisher) (Homo sapiens, UniProt Q9Y2K2); experiment: Biochemical activities determination for SIK3 protein (TR-FRET); details: 125 uM ATP, 0.5 μM STK1 substrate
T3 construct: SIK3 kinase (aa59-365, Thermo Fisher); purchased Thermo Fisher
T3 sequence (Q9Y2K2 59-365): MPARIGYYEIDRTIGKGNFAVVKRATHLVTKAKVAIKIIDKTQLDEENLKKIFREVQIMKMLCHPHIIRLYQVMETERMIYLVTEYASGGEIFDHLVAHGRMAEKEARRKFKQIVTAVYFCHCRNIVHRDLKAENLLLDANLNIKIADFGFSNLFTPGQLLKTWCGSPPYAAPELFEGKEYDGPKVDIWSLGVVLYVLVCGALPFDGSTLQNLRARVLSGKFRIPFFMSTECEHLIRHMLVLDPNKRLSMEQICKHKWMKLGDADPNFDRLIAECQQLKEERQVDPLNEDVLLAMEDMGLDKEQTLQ
Description: 3. Biochemical Activities Determination for SIK3 Protein
Compounds were tested for inhibition of SIK3 kinase (aa59-365, Thermo Fisher) in assays based on the time-resolved fluorescence-resonance energy transfer (TR-FRET) methodology. The assays were carried out in 384-well low volume white plates in a reaction mixture containing SIK3 kinase, 125 uM ATP, 0.5 μM STK1 substrate and 0-10 μM compound in buffer containing 25 mM Tris, 0.01% Trition X-100, 0.5 mM EGTA, 5 mM MgCl2, 2.5 mM DTT, PH=7.5. The kinase was incubated with compound for 60 minutes at room temperature and the reaction was initiated by the addition of ATP and STK1 substrate. After reaction at room temperature for 180 minutes, an equal volume of stop/detection solution was added according to the manufacture's instruction (CisBio Bioassays). The stop/detection solution contained STK Antibody-Cryptate and XL665-conjugated streptavidin (Cat: 62ST1PEC, Cisbio) in Detection Buffer (Cat: 62SDBRDF, Cisbio). Plates were sealed and incubated at room temperature for overnight, and the TR-FRET signals (ratio of fluorescence emission at 665 nm over emission at 620 nm with excitation at 337 nm wavelength) were recorded on a PHERAstar FS plate reader (BMG Labtech). Phosphorylation of STK1 substrate led to the binding of STK Antibody-Cryptate to the biotinylated STK1 substrate, which places fluorescent donor (Eu^3+ crypate) in close proximity to the accepter (Streptavidin-XL665), thus resulting in a high degree of fluorescence resonance energy transfer from the donor fluorophore (at 620 nm) to the acceptor fluorophore (at 665 nm). […] The IC50 for each compound was derived from fitting the data to the four-parameter logistic equation by Dotmatics.

T1 sequence (Q9H0K1 whole entry): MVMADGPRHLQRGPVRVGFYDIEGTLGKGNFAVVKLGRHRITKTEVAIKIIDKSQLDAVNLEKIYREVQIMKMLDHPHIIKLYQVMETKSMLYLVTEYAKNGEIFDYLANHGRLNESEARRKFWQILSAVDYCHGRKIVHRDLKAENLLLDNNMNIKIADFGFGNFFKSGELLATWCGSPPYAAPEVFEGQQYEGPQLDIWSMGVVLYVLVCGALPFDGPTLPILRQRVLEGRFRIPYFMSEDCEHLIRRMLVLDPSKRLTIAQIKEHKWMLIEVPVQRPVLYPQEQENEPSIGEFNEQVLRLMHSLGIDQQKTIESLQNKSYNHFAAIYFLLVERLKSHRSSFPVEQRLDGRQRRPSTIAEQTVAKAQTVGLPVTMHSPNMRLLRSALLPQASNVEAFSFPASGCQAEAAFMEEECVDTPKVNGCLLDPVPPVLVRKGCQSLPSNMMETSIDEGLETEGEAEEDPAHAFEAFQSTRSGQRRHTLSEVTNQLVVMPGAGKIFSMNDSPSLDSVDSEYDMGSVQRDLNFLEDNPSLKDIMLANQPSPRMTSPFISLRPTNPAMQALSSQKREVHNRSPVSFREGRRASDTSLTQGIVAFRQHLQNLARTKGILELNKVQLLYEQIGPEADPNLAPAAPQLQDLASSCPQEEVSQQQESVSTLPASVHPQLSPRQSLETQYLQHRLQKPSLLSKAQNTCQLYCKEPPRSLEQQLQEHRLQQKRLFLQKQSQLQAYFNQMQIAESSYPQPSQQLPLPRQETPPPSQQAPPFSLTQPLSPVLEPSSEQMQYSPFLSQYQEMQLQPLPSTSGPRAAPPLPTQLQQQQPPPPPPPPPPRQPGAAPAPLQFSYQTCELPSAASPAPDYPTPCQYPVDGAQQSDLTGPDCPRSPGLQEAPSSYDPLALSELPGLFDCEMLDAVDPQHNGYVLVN

SMILES	IC50 [1]	IC50 [2]	IC50 [3]
COc1cc(-c2coc3cc(-c4cn(C)nc4C)ccc23)cc2c1C(=O)N(CC(F)(F)F)CC2 [Compound 15, 6-(6-(1,3-dimethyl-1H-pyrazol-4-yl)benzofuran-3-yl)-8-methoxy-2-(2,2,2-trifluoroethyl)-3,4-dihydroisoquinolin-1 (2H)-one]	95 nM	6040 nM	174 nM
COc1cc(-c2coc3cc(-c4cn(C)nc4C(F)(F)F)ccc23)cc2c1C(=O)N(CC(F)(F)F)CC2 [Compound 16, 8-methoxy-6-(6-(1-methyl-3-(trifluoromethyl)-1H-pyrazol-4-yl)benzofuran-3-yl)-2-(2,2,2-trifluoroethyl)-3,4-dihydroisoquinolin-1 (2H)-one]	3350 nM	> 10000 nM	5840 nM
COc1cc(-c2coc3cc(-c4cn(C)nn4)ccc23)cc2c1C(=O)N(CC(F)(F)F)CC2 [Compound 17, 8-methoxy-6-(6-(1-methyl-1H-1,2,3-triazol-4-yl)benzofuran-3-yl)-2-(2,2,2-trifluoroethyl)-3,4-dihydroisoquinolin-1 (2H)-one]	28 nM	2310 nM	79 nM
COc1cc(-c2coc3cc(-c4cn(C)nc4C#N)ccc23)cc2c1C(=O)N(CC(F)(F)F)CC2 [Compound 18, 4-(3-(8-methoxy-1-oxo-2-(2,2,2-trifluoroethyl)-1,2,3,4-tetrahydroisoquinolin-6-yl)benzofuran-6-yl)-1-methyl-1H-pyrazole-3-carbonitrile]	214 nM	> 10000 nM	237 nM
COc1cc(-c2coc3cc(-c4cn(C)nc4OC)ccc23)cc2c1C(=O)N(CC(F)(F)F)CC2 [Compound 19, 8-methoxy-6-(6-(3-methoxy-1-methyl-1H-pyrazol-4-yl)benzofuran-3-yl)-2-(2,2,2-trifluoroethyl)-3,4-dihydroisoquinolin-1 (2H)-one]	80 nM	3130 nM	132 nM
COc1cc(-c2coc3cc(-c4cnn(C)c4)ccc23)cc2c1C(=O)N(CC#N)CC2 [Compound 20, 2-(8-methoxy-6-(6-(1-methyl-1H-pyrazol-4-yl)benzofuran-3-yl)-1-oxo-3,4-dihydroisoquinolin-2 (1H)-yl) acetonitrile]	12 nM	362 nM	14 nM
Cn1cc(-c2ccc3c(-c4cc5c(c(OC(F)F)c4)C(=O)N(CC#N)CC5)coc3c2)cn1 [Compound 21, 2-(8-(difluoromethoxy)-6-(6-(1-methyl-1H-pyrazol-4-yl)benzofuran-3-yl)-1-oxo-3,4-dihydroisoquinolin-2 (1H)-yl) acetonitrile]	11 nM	289 nM	15 nM
COc1cc(-c2coc3cc(-c4cn(C)nc4F)ccc23)cc2c1C(=O)N(CC(F)(F)F)CC2 [Compound 22, 6-(6-(3-fluoro-1-methyl-1H-pyrazol-4-yl)benzofuran-3-yl)-8-methoxy-2-(2,2,2-trifluoroethyl)-3,4-dihydroisoquinolin-1 (2H)-one]	79 nM	5920 nM	127 nM
COc1cc(-c2coc3cc(-c4cn(C)nc4Cl)ccc23)cc2c1C(=O)N(CC(F)(F)F)CC2 [Compound 23, 6-(6-(3-chloro-1-methyl-1H-pyrazol-4-yl)benzofuran-3-yl)-8-methoxy-2-(2,2,2-trifluoroethyl)-3,4-dihydroisoquinolin-1 (2H)-one]	223 nM	> 10000 nM	387 nM

Now from value to compound:

IC50 [1]	IC50 [2]	IC50 [3]	SMILES
18 nM	1220 nM	161 nM	COc1cc(-c2coc3cc(OCCN4CCCC4)ccc23)cc(OC(F)F)c1C(=O)NC1CCCCC1N (racemic) [Compound 124, N-(2-aminocyclohexyl)-2-(difluoromethoxy)-6-methoxy-4-(6-(2-(pyrrolidin-1-yl)ethoxy)benzofuran-3-yl)benzamide]
103 nM	> 10000 nM	359 nM	COc1cc(-c2coc3cc(OCCN4CCCC4)ccc23)cc(OC(F)F)c1C(=O)NC1CCCC1N (racemic) [Compound 130, N-(2-aminocyclopentyl)-2-(difluoromethoxy)-6-methoxy-4-(6-(2-(pyrrolidin-1-yl)ethoxy)benzofuran-3-yl)benzamide]
653 nM	> 10000 nM	1560 nM	COc1cc(-c2coc3cc(OCCN4CCCC4)ccc23)cc(OC(F)F)c1C(=O)NC1CC1N (racemic) [Compound 131, N-(2-aminocyclopropyl)-2-(difluoromethoxy)-6-methoxy-4-(6-(2-(pyrrolidin-1-yl)ethoxy)benzofuran-3-yl)benzamide]
281 nM	3340 nM	320 nM	Cn1cc(-c2ccc3c(-c4cc5c(c(OC(F)F)c4)C(=O)N(CC(N)=O)CC5)coc3c2)cn1 [Compound 24, 2-(8-(difluoromethoxy)-6-(6-(1-methyl-1H-pyrazol-4-yl)benzofuran-3-yl)-1-oxo-3,4-dihydroisoquinolin-2 (1H)-yl) acetamide]
15 nM	195 nM	26 nM	COc1cc(-c2coc3cc(-c4cnn(C)c4)ccc23)cc(OC(F)F)c1C(=O)NCC(F)(F)F [Compound 25, 2-(difluoromethoxy)-6-methoxy-4-(6-(1-methyl-1H-pyrazol-4-yl)benzofuran-3-yl)-N-(2,2,2-trifluoroethyl)benzamide]
3.4 nM	33 nM	5 nM	COc1cc(-c2coc3cc(-c4cnn(C)c4)ccc23)cc(OC(F)F)c1C(=O)N[C@@H]1C[C@@H]1F [Compound 26, 2-(difluoromethoxy)-N-((1R,2S)-2-fluorocyclopropyl)-6-methoxy-4-(6-(1-methyl-1H-pyrazol-4-yl)benzofuran-3-yl)benzamide]
34 nM	1130 nM	72 nM	COc1cc(-c2coc3cc(-c4cnn(C)c4)ccc23)cc2c1C(=O)N(C1CC1)CC2 [Compound 27, 2-cyclopropyl-8-methoxy-6-(6-(1-methyl-1H-pyrazol-4-yl)benzofuran-3-yl)-3,4-dihydroisoquinolin-1 (2H)-one]
